# PubChem BioAssay (NCI)
#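 Growth conditions: 96-well plates. Treatment: test compound, 48 hours, 5 concentrations. Analysis: linear interpolation between bracketing concentrations; unreached endpoints set to highest concentration. Definition used: TGI = concentration required for complete inhibition of growth.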 Active and inactive are the calls of the source. Cut-off read from the data, not from the text of the source: active = GI50 below about 0.43 µM; inactive = the rest.
# Experiments:
# Assay in all cases: growth of human tumour cells (NCI), 48 h
# HS 578T breast = test system: HS 578T breast
# DU-145 prostate = test system: DU-145 prostate
# SF-295 CNS = test system: SF-295 CNS
# SNB-19 CNS = test system: SNB-19 CNS
# UACC-62 melanoma = test system: UACC-62 melanoma
# A549 NSCLC = test system: A549 NSCLC
# OVCAR-5 ovarian = test system: OVCAR-5 ovarian
# U251 CNS = test system: U251 CNS
# SK-MEL-2 melanoma = test system: SK-MEL-2 melanoma
# BT-549 breast = test system: BT-549 breast
# COLO 205 colon = test system: COLO 205 colon
# MCF7 breast = test system: MCF7 breast
# EKVX NSCLC = test system: EKVX NSCLC
# A498 renal = test system: A498 renal
# SF-268 CNS = test system: SF-268 CNS
# SK-OV-3 ovarian = test system: SK-OV-3 ovarian
# NCI-H522 lung = test system: NCI-H522 lung
# ACHN renal = test system: ACHN renal
# M14 melanoma = test system: M14 melanoma
# RXF 393 renal = test system: RXF 393 renal
# UO-31 renal = test system: UO-31 renal
# PC-3 prostate = test system: PC-3 prostate
# CAKI-1 renal = test system: CAKI-1 renal
# RPMI-8226 leukemia = test system: RPMI-8226 leukemia
# HCC-2998 colon = test system: HCC-2998 colon
# OVCAR-8 ovarian = test system: OVCAR-8 ovarian
# NCI/ADR-RES ovarian = test system: NCI/ADR-RES ovarian
# SN12C renal = test system: SN12C renal
# HT29 colon = test system: HT29 colon
# K-562 leukemia = test system: K-562 leukemia
# TK-10 renal = test system: TK-10 renal
# HOP-92 NSCLC = test system: HOP-92 NSCLC
# HOP-62 NSCLC = test system: HOP-62 NSCLC
# T-47D breast = test system: T-47D breast
# MDA-MB-231 breast = test system: MDA-MB-231 breast
# OVCAR-4 ovarian = test system: OVCAR-4 ovarian
# UACC-257 melanoma = test system: UACC-257 melanoma
# OVCAR-3 ovarian = test system: OVCAR-3 ovarian
# SNB-75 CNS = test system: SNB-75 CNS
# NCI-H460 lung = test system: NCI-H460 lung
# HCT-15 colon = test system: HCT-15 colon
# SF-539 CNS = test system: SF-539 CNS
# CCRF-CEM leukemia = test system: CCRF-CEM leukemia
# 786-0 renal = test system: 786-0 renal
# MALME-3M melanoma = test system: MALME-3M melanoma
# NCI-H23 lung = test system: NCI-H23 lung
# MOLT-4 leukemia = test system: MOLT-4 leukemia
# NCI-H226 lung = test system: NCI-H226 lung
smiles,measurement,setting,value
O=[N+]([O-])C(=C(Cl)Cl)/C(Cl)=C(\Cl)Br,outcome,HS 578T breast,inactive
same,outcome,DU-145 prostate,inactive
same,outcome,SF-295 CNS,inactive
same,outcome,SNB-19 CNS,inactive
same,outcome,UACC-62 melanoma,inactive
same,outcome,A549 NSCLC,inactive
same,outcome,OVCAR-5 ovarian,inactive
CCOc1cc2c(OCc3ccccc3)cc3c4cc(OC)c(OC)cc4c[n+](C)c3c2cc1OC,TGI,U251 CNS,2.66 µM
same,TGI,SK-MEL-2 melanoma,2.59 µM
same,TGI,BT-549 breast,4.72 µM
same,TGI,COLO 205 colon,0.481 µM
same,TGI,MCF7 breast,4.44 µM
same,TGI,EKVX NSCLC,> 100 µM
same,TGI,A498 renal,> 76.3 µM
same,TGI,DU-145 prostate,23.2 µM
same,TGI,SF-268 CNS,4.91 µM
same,TGI,SK-OV-3 ovarian,19.4 µM
same,TGI,SF-295 CNS,> 86.3 µM
same,TGI,NCI-H522 lung,1.43 µM
same,TGI,ACHN renal,> 75.2 µM
same,TGI,M14 melanoma,9.73 µM
same,TGI,RXF 393 renal,9.18 µM
same,TGI,UO-31 renal,> 80.4 µM
same,TGI,PC-3 prostate,4.84 µM
same,TGI,SNB-19 CNS,2.44 µM
same,TGI,CAKI-1 renal,> 69.4 µM
same,TGI,RPMI-8226 leukemia,> 29.6 µM
same,TGI,HCC-2998 colon,21.6 µM
same,TGI,OVCAR-8 ovarian,5.6 µM
same,TGI,NCI/ADR-RES ovarian,> 100 µM
same,TGI,SN12C renal,> 100 µM
same,TGI,HT29 colon,11.1 µM
same,TGI,K-562 leukemia,> 42.6 µM
same,TGI,TK-10 renal,> 62.6 µM
same,TGI,A549 NSCLC,24.2 µM
same,TGI,HOP-92 NSCLC,2.08 µM
same,TGI,HOP-62 NSCLC,19.6 µM
same,TGI,T-47D breast,> 100 µM
same,TGI,OVCAR-5 ovarian,44 µM
same,TGI,MDA-MB-231 breast,6.65 µM
same,TGI,OVCAR-4 ovarian,> 100 µM
same,TGI,UACC-257 melanoma,4.95 µM
same,TGI,OVCAR-3 ovarian,6.17 µM
same,TGI,SNB-75 CNS,> 100 µM
same,TGI,NCI-H460 lung,> 58.9 µM
same,TGI,HCT-15 colon,> 100 µM
same,TGI,SF-539 CNS,5.43 µM
same,TGI,CCRF-CEM leukemia,23 µM
same,TGI,786-0 renal,26.6 µM
same,TGI,MALME-3M melanoma,2.18 µM
same,TGI,NCI-H23 lung,9.1 µM
same,TGI,MOLT-4 leukemia,> 20.3 µM
same,TGI,NCI-H226 lung,9.71 µM
